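48-hour exposure; five concentrations; linearly interpolated endpoints. GI50 marks 50% less growth. At the TGI there is no net growth.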
Legend:
Assay in all cases: NCI anticancer screen, dose series, 48 h
786-0 renal = system: 786-0 renal
A498 renal = system: A498 renal
A549 NSCLC = system: A549 NSCLC
ACHN renal = system: ACHN renal
CAKI-1 renal = system: CAKI-1 renal
CCRF-CEM leukemia = system: CCRF-CEM leukemia
COLO 205 colon = system: COLO 205 colon
DLD-1 colon = system: DLD-1 colon
DMS 114 small cell lung = system: DMS 114 small cell lung
EKVX NSCLC = system: EKVX NSCLC
HCC-2998 colon = system: HCC-2998 colon
HCT-116 colon = system: HCT-116 colon
HCT-15 colon = system: HCT-15 colon
HL-60(TB) leukemia = system: HL-60(TB) leukemia
HOP-18 NSCLC = system: HOP-18 NSCLC
HOP-62 NSCLC = system: HOP-62 NSCLC
HOP-92 NSCLC = system: HOP-92 NSCLC
HT29 colon = system: HT29 colon
IGROV1 ovarian = system: IGROV1 ovarian
K-562 leukemia = system: K-562 leukemia
KM12 colon = system: KM12 colon
KM20L2 colon = system: KM20L2 colon
LOX IMVI melanoma = system: LOX IMVI melanoma
LXFL 529 NSCLC = system: LXFL 529 NSCLC
M14 melanoma = system: M14 melanoma
M19-MEL melanoma = system: M19-MEL melanoma
MALME-3M melanoma = system: MALME-3M melanoma
MOLT-4 leukemia = system: MOLT-4 leukemia
NCI-H226 lung = system: NCI-H226 lung
NCI-H23 lung = system: NCI-H23 lung
NCI-H460 lung = system: NCI-H460 lung
NCI-H522 lung = system: NCI-H522 lung
OVCAR-3 ovarian = system: OVCAR-3 ovarian
OVCAR-4 ovarian = system: OVCAR-4 ovarian
OVCAR-5 ovarian = system: OVCAR-5 ovarian
OVCAR-8 ovarian = system: OVCAR-8 ovarian
RXF 393 renal = system: RXF 393 renal
SF-268 CNS = system: SF-268 CNS
SF-295 CNS = system: SF-295 CNS
SF-539 CNS = system: SF-539 CNS
SK-MEL-2 melanoma = system: SK-MEL-2 melanoma
SK-MEL-28 melanoma = system: SK-MEL-28 melanoma
SK-MEL-5 melanoma = system: SK-MEL-5 melanoma
SK-OV-3 ovarian = system: SK-OV-3 ovarian
SN12C renal = system: SN12C renal
SNB-19 CNS = system: SNB-19 CNS
SNB-75 CNS = system: SNB-75 CNS
SNB-78 CNS = system: SNB-78 CNS
SR leukemia = system: SR leukemia
SW-620 colon = system: SW-620 colon
TK-10 renal = system: TK-10 renal
U251 CNS = system: U251 CNS
UACC-257 melanoma = system: UACC-257 melanoma
UACC-62 melanoma = system: UACC-62 melanoma
UO-31 renal = system: UO-31 renal
BT-549 breast = system: BT-549 breast
DU-145 prostate = system: DU-145 prostate
HS 578T breast = system: HS 578T breast
MCF7 breast = system: MCF7 breast
MDA-MB-231 breast = system: MDA-MB-231 breast
MDA-MB-435 = system: MDA-MB-435
MDA-N = system: MDA-N
NCI/ADR-RES ovarian = system: NCI/ADR-RES ovarian
PC-3 prostate = system: PC-3 prostate
T-47D breast = system: T-47D breast

O=C(C#Cc1ccccc1)NC/C=C/c1ccccc1
TGI (786-0 renal): 56.2 µM
TGI (A498 renal): > 100 µM
TGI (A549 NSCLC): > 100 µM
TGI (ACHN renal): > 100 µM
TGI (CAKI-1 renal): > 100 µM
TGI (CCRF-CEM leukemia): > 100 µM
TGI (COLO 205 colon): > 100 µM
TGI (DLD-1 colon): > 100 µM
TGI (DMS 114 small cell lung): > 100 µM
TGI (EKVX NSCLC): > 100 µM
TGI (HCC-2998 colon): 99.2 µM
TGI (HCT-116 colon): > 100 µM
TGI (HCT-15 colon): > 100 µM
TGI (HL-60(TB) leukemia): 58.1 µM
TGI (HOP-18 NSCLC): > 100 µM
TGI (HOP-62 NSCLC): 52.5 µM
TGI (HOP-92 NSCLC): 57.2 µM
TGI (HT29 colon): > 100 µM
TGI (IGROV1 ovarian): > 100 µM
TGI (K-562 leukemia): > 100 µM
TGI (KM12 colon): > 100 µM
TGI (KM20L2 colon): > 100 µM
TGI (LOX IMVI melanoma): > 100 µM
TGI (LXFL 529 NSCLC): > 100 µM
TGI (M14 melanoma): > 100 µM
TGI (M19-MEL melanoma): > 100 µM
TGI (MALME-3M melanoma): > 100 µM
TGI (MOLT-4 leukemia): > 100 µM
TGI (NCI-H226 lung): 93.8 µM
TGI (NCI-H23 lung): > 100 µM
TGI (NCI-H460 lung): > 100 µM
TGI (NCI-H522 lung): 96.6 µM
TGI (OVCAR-3 ovarian): > 100 µM
TGI (OVCAR-4 ovarian): > 100 µM
TGI (OVCAR-5 ovarian): > 100 µM
TGI (OVCAR-8 ovarian): > 100 µM
TGI (RXF 393 renal): 37 µM
TGI (SF-268 CNS): > 100 µM
TGI (SF-295 CNS): > 100 µM
TGI (SF-539 CNS): > 100 µM
TGI (SK-MEL-2 melanoma): 97.4 µM
TGI (SK-MEL-28 melanoma): > 100 µM
TGI (SK-MEL-5 melanoma): > 100 µM
TGI (SK-OV-3 ovarian): 56.6 µM
TGI (SN12C renal): > 100 µM
TGI (SNB-19 CNS): 79.9 µM
TGI (SNB-75 CNS): 45.8 µM
TGI (SNB-78 CNS): 84.1 µM
TGI (SR leukemia): > 100 µM
TGI (SW-620 colon): > 100 µM
TGI (TK-10 renal): > 100 µM
TGI (U251 CNS): > 100 µM
TGI (UACC-257 melanoma): > 100 µM
TGI (UACC-62 melanoma): > 100 µM
TGI (UO-31 renal): > 100 µM

O=C([O-])C([O-])C([O-])C(=O)[O-].[Co+3].c1ccc(-c2ccnc3c2ccc2c(-c4ccccc4)ccnc23)cc1.c1ccc(-c2ccnc3c2ccc2c(-c4ccccc4)ccnc23)cc1.c1ccc(-c2ccnc3c2ccc2c(-c4ccccc4)ccnc23)cc1
GI50 (CAKI-1 renal): 0.0339 µM
TGI (CAKI-1 renal): 0.235 µM
TGI (DLD-1 colon): 1.6 µM
TGI (KM20L2 colon): 0.291 µM
TGI (NCI-H226 lung): 0.27 µM
TGI (NCI-H522 lung): 0.128 µM
TGI (OVCAR-5 ovarian): 1.65 µM
TGI (SK-MEL-28 melanoma): 1.96 µM
TGI (SNB-75 CNS): > 100 µM
TGI (SR leukemia): 0.207 µM
TGI (UACC-62 melanoma): 0.407 µM
TGI (UO-31 renal): 0.0823 µM

O=S1(=O)N=C(SCc2c[nH]c3ccccc23)N(c2ccccc2)c2ccncc21
TGI (786-0 renal): 65.5 µM
TGI (A498 renal): 82.2 µM
TGI (A549 NSCLC): > 100 µM
TGI (ACHN renal): > 100 µM
TGI (BT-549 breast): > 100 µM
TGI (CAKI-1 renal): > 100 µM
TGI (CCRF-CEM leukemia): > 100 µM
TGI (COLO 205 colon): > 100 µM
TGI (DU-145 prostate): > 100 µM
TGI (EKVX NSCLC): > 100 µM
TGI (HCC-2998 colon): > 100 µM
TGI (HCT-116 colon): > 100 µM
TGI (HCT-15 colon): > 100 µM
TGI (HL-60(TB) leukemia): > 100 µM
TGI (HOP-62 NSCLC): > 100 µM
TGI (HOP-92 NSCLC): > 100 µM
TGI (HS 578T breast): > 100 µM
TGI (HT29 colon): > 100 µM
TGI (K-562 leukemia): > 100 µM
TGI (KM12 colon): > 100 µM
TGI (LOX IMVI melanoma): > 100 µM
TGI (M14 melanoma): > 100 µM
TGI (MALME-3M melanoma): > 100 µM
TGI (MCF7 breast): > 100 µM
TGI (MDA-MB-231 breast): > 100 µM
TGI (MDA-MB-435): > 100 µM
TGI (MDA-N): > 100 µM
TGI (MOLT-4 leukemia): > 100 µM
TGI (NCI-H226 lung): > 100 µM
TGI (NCI-H23 lung): > 100 µM
TGI (NCI-H460 lung): > 100 µM
TGI (NCI-H522 lung): > 100 µM
TGI (NCI/ADR-RES ovarian): > 100 µM
TGI (OVCAR-3 ovarian): > 100 µM
TGI (OVCAR-4 ovarian): > 100 µM
TGI (OVCAR-5 ovarian): > 100 µM
TGI (OVCAR-8 ovarian): > 100 µM
TGI (PC-3 prostate): > 100 µM
TGI (SF-268 CNS): > 100 µM
TGI (SF-295 CNS): > 100 µM
TGI (SF-539 CNS): 80.5 µM
TGI (SK-MEL-2 melanoma): > 100 µM
TGI (SK-MEL-28 melanoma): > 100 µM
TGI (SK-MEL-5 melanoma): > 100 µM
TGI (SK-OV-3 ovarian): > 100 µM
TGI (SN12C renal): > 100 µM
TGI (SNB-19 CNS): > 100 µM
TGI (SNB-75 CNS): 87.7 µM
TGI (SR leukemia): > 100 µM
TGI (SW-620 colon): > 100 µM
TGI (T-47D breast): > 100 µM
TGI (TK-10 renal): > 100 µM
TGI (U251 CNS): > 100 µM
TGI (UACC-257 melanoma): > 100 µM
TGI (UACC-62 melanoma): > 100 µM
TGI (UO-31 renal): 50 µM

Source: PubChem BioAssay (NCI)
